Entries after “also recorded” stand apart in the source; their conditions may differ.

Common to all, as to type: cell-based
For data set [1], the system named is Candida albicans wild type strain SN250. Put plainly: Screen for inhibition of Candida albicans lawn formation (halo) on solid serum (FBS agar) plates. As to conditions: 5 μl of 10 mM drug on fungal lawn, 25° C. and 37° C. As to the method:
(§1) C. albicans was plated on solid YPD and serum plates, and 5 μl of each 10 mM drug was placed on top of the fungal lawn. The effect of exposure to each of the compounds from the library was assayed for its ability to inhibit C. albicans growth, as well as ability to form a halo within the fungal lawn. […] (FIG. 1A).
Media and Growth Conditions: C. albicans strains were cultured with 5 ml of YPD (1% yeast extract, 2% peptone, 2% dextrose, pH 6) medium at 30° C. overnight. Bacterial cells were cultured in LB (Luria-Bertani) medium consisting of 5 g Bacto-Tryptone, 2.5 g Bacto-Yeast Extract, 5 g NaCl and 7.5 g of 2% agar if preparing solid plates. The centrifuge tubes were incubated at 37° C. and left shaking overnight at 150 rpm. Fetal bovine serum was incorporated into agar. Fetal bovine serum was preheated in a water bath set at 65° C. […] The agar solution for the serum mixture consisted of 16 g agar, which was then brought up to 300 ml with nanopure water. The agar solution was then autoclaved at 120° C. for 45 minutes. The agar and serum mixtures were then amalgamated while in their isothermal states.
(§2) High-throughput Screening Assay: The sensitivity of C. albicans against compounds was assessed by a high-throughput chemical screen. 200 μl of C. albicans overnight culture were spread onto petri dishes containing either YPD or fetal bovine serum. 5 μl of each drug was placed directly on the agar surface using a multichannel pipette and slight contact of the tip to the agar made to leave an impression to facilitate later analysis. Compounds that were replicated were done on petri dishes, following the same protocol in at least five independent experiments. For the replication studies, only a single drug was placed per plate. The plates were incubated at either 25° C. or 37° C.

The test system is the same in data set [2]. Put plainly: Screen for inhibition of Candida albicans lawn formation (halo) on solid YPD plates. As to conditions: for inhibition of C. albicans growth (halo formation) on YPD plates: 5 μl of 10 mM drug on fungal lawn, 25° C. and 37° C. On the procedure: as §1, §2
In data set [3] the test system is Candida albicans knock-out mutants. As to the kind of experiment: Genotypic mutant screening against Octodrine (three knockout libraries, 908 mutant strains). As to conditions: 5 μl of 10 mM drug on YPD plates, 30° C. overnight. On the procedure: In order to identify C. albicans proteins and signaling pathways that mediate the lethality of Octodrine, three C. albicans knockout libraries were screened for any alterations in sensitivity to 10 mM Octodrine—collectively consisting of 908 mutant strains each strain lacking one of the virulence genes. These libraries consisted of 647 mutant strains lacking one of the essential virulence genes (Noble, S M et al., 2010, Nat Genet 42:590-598, the entire content of which is herein incorporated by reference); 96 cell wall protein mutants (Norice, C T et al., 2007, Eukaryot Cell 6:2046-2055, the entire content of which is herein incorporated by reference); and 165 transcription factors mutants (Nobile, C J et al., 2005, Curr Biol 15:1150-1155, the entire content of which is herein incorporated by reference).
Genotypic Mutant Screening Against Octodrine: Each C. albicans knockout strain was cultured in individual wells of a 96 well plate in 100 μl of YPD media overnight at 30° C. 5 μl of each Candida knock-out overnight culture was spotted onto a YPD solid plate using a multichannel pipette. The cells were then left to absorb into the YPD plates for 1 hour at 25° C. Using a multichannel pipette, 5 μl of Octodrine 10 mM was spotted directly on top of the C. albicans cells. The plates were then placed in an incubator set at 30° C. and left overnight. […]

For data set [4], the system named is Escherichia coli strain C600. As to the kind of experiment: Halo formation in bacterial lawn, gram-negative bacteria. The conditions noted are these: 5 μl of neat form (3 mg of undiluted). From the text:
(§3) In order to test if Octodrine kills microorganisms by targeting their non-protein cellular components, Escherichia coli and Bacillus cereus, gram-negative and gram-positive bacteria respectively, were exposed to Octodrine.
(§4) Candida albicans and Bacterial Strains: The Candida albicans wild type strain SN250 was used for the high-throughput screening experiments. The bacterial strain consisted of Bacillus cereus strain 10987 and Escherichia coli strain C600. The genotypic screen for mutant sensitivity to Octodrine was tested with three C. albicans libraries that were previously created as disclosed in Noble, 2010, supra; Rauceo, J M et al., 2008, Mol Biol Cell 19:2741-2751; and Homann, O R et al., 2009, PLoS Genet 5:e1000783, the entire contents of all of which are herein incorporated by reference.
(§5) Media and Growth Conditions: C. albicans strains were cultured with 5 ml of YPD (1% yeast extract, 2% peptone, 2% dextrose, pH 6) medium at 30° C. overnight. Bacterial cells were cultured in LB (Luria-Bertani) medium consisting of 5 g Bacto-Tryptone, 2.5 g Bacto-Yeast Extract, 5 g NaCl and 7.5 g of 2% agar if preparing solid plates. The centrifuge tubes were incubated at 37° C. and left shaking overnight at 150 rpm. Fetal bovine serum was incorporated into agar. Fetal bovine serum was preheated in a water bath set at 65° C. […]

Data set [5] has as its system Bacillus cereus strain 10987. As to the kind of experiment: Halo formation in bacterial lawn, gram-positive bacteria. As to conditions: 5 μl of neat form (3 mg of undiluted).
Text: as §3, §4, §5

For data set [6], the system named is RAW264.7 mouse macrophage cells. As to the kind of experiment: Mammalian cell survival assay (MTT). As to conditions: RAW264.7, 1 μl of 10 mM drug in 100 μl media with two-fold dilutions, 24 hours. On the procedure:
Mammalian cell culture, drug treatment, and survival assay: RAW264.7 mouse macrophage cells were maintained in DMEM (Dulbecco's Modified Eagle Medium, Sigma-Aldrich) supplemented with 10% FBS (fetal bovine serum, Bioexpress) and 100 μg/mL penicillin and 100 μg/mL streptomycin. RAW264.7 cells (10,000 per well) were seeded in 96-well plates (100 μL/well) 24 hours before the assay. During the assay, 1 μl of 10 mM drug was added to 100 μl of cell-containing media. Two-fold serial dilutions of the media were performed. Cells were treated with drugs for 24 hours, and determination of cell viability by 3-(4,5-dimethylthiazol-2-yl)-2,5-diphenyltetrazolium bromide (MTT) assay was performed as described in Lu et al., 2004, Proc Natl Acad Sci USA 101:17246-17251, the entire content of which is herein incorporated by reference.
Each data point shown in the figure for MTT assays represents the average of results from at least two wells in each of at least two separate experiments. Cell viability is shown as the percentage of survivors obtained relative to untreated cells (100%).

For data set [7], the system named is Candida albicans wild type strain SN250. As to the kind of experiment: Screen for inhibition of Candida albicans lawn formation (halo) on solid serum (FBS agar) plates. The conditions noted are these: 5 μl of undiluted (neat) drug, approximately 3 mg, middle of serum-grown lawn.

On to `Cc1ccc2c(Cl)cc(Cl)c(O)c2n1` [Chlorquinaldol], for which the “inhibition of C. albicans growth (halo formation) on serum plates” value (from here on “inhibition … on serum plates”) in data set [1] was “strongest inhibition”.

On to `O=[N+]([O-])c1ccc(/C=N/O)o1` [Nifuroxime], for which the “inhibition … on serum plates” value in data set [1] is on record as “weaker inhibition”.

In the case of `CC(C)n1c(/C=C/C(O)CC(O)CC(=O)O)c(-c2ccc(F)cc2)c2ccccc21` (stereo not drawn) [Fluvastatin], the “inhibition … on serum plates” value in data set [1] is “failed to inhibit”.

Take `CCCCCCCC(=O)O` [Octanoic acid]: the “inhibition … on serum plates” value in data set [1] is “weaker inhibition”.

On to `OC(Cn1cncn1)(Cn1cncn1)c1ccc(F)cc1F` [Fluconazole], for which the “inhibition of C. albicans growth (halo formation) on YPD plates” value (“inhibition … on YPD plates” for short) in data set [2] is “strong inhibition”; in data set [2] (listed as fluconazole), “effective inhibitor; also recorded: prominent halos”. In data set [2] (5 μl of 10 mM drug, 37° C. versus 25° C.), the “effectiveness at forming halos at 37° C. compared to 25° C.” value is “diminished effectiveness”. The “inhibition … on serum plates” value in data set [1] is recorded as “weak inhibition”.

Regarding `Clc1ccc(COC(Cn2ccnc2)c2ccc(Cl)cc2Cl)c(Cl)c1` (stereo not drawn) [Miconazole], the “inhibition … on YPD plates” value in data set [2] was “strong inhibition”. Besides, the “inhibition … on serum plates” value in data set [1] is listed as “weak inhibition”.

`Clc1ccccc1C(c1ccccc1)(c1ccccc1)n1ccnc1` [Clotrimazole]: the “inhibition … on YPD plates” value in data set [2] is on record as “strong inhibition”. Besides, the “inhibition … on serum plates” value in data set [1] is recorded as “weak inhibition”.

On to `O=C1C2CC=CCC2C(=O)N1SC(Cl)(Cl)Cl` (stereo not drawn) [Captan], for which the “inhibition … on YPD plates” value in data set [2] is recorded as “strong inhibition”.

As for Antimycin A, in data set [2], the “inhibition … on YPD plates” value is listed as “strong inhibition”. The “inhibition … on serum plates” value in data set [1] is “weak inhibition”.

Take `CC(C)CCCC(C)N` (stereo not drawn) [Octodrine, 6-methylheptan-2-amine]: the “inhibition … on YPD plates” value in data set [2] was “moderate-to-weak anti-Candida activity and mild”. In addition, the “inhibition … on serum plates” value in data set [1] is “strong fungal growth inhibition; also recorded: prominent ability to kill; also recorded: most prominent drug that killed C. albicans in serum; also recorded: best Candida growth inhibition”. Further, in data set [3], the “sensitivity of C. albicans knockout mutants relative to wild type” value was “as sensitive as their wild type strains; also recorded: no C. albicans mutants (FIG. 3) showed a decrease in sensitivity”. In addition, the “halo formation in E. coli lawn” value in data set [4] was “formed prominent halos; also recorded: capable of killing”. Moreover, the “halo formation in B. cereus lawn” value in data set [5] is recorded as “formed prominent halos; also recorded: capable of killing”. The “survival of mouse macrophages (cell viability relative to untreated cells)” value in data set [6] is given as “the same as to the DMSO alone; also recorded: did not affect the sensitivity”. Further, in data set [7], the “elimination of serum-grown Candida lawn by undiluted drug” value is reported as “sufficient to eliminate most of the whole fungal lawn”.

Regarding `O=[N+]([O-])c1ccc(O)c2ncccc12` [Nitroxoline], the “inhibition … on serum plates” value in data set [1] is reported as “weaker inhibition”.

Take `[O-][n+]1ccccc1[S-].[O-][n+]1ccccc1[S-].[Zn+2]` [Pyrithione Zinc]: the “inhibition … on YPD plates” value in data set [2] is “strong inhibition”. Besides, the “inhibition … on serum plates” value in data set [1] was “weak inhibition”.

`COc1c(C)c2c(c(O)c1C/C=C(\C)CCC(=O)O)C(=O)OC2` [Mycophenolic acid]: the “inhibition … on YPD plates” value in data set [2] is “very strong inhibition”. Besides, the “inhibition … on serum plates” value in data set [1] is recorded as “failed to inhibit”.

Source of the values: patent US9439876B2, “Method of treating microbial infections” (priority 2014, dated 2016).
